Broadly, the Kd is a measure of binding affinity in units of concentration.

The target of test [1] is T1, IVTris fibrils (recombinant Asyn PFF) (Homo sapiens, UniProt P37840).
T1 construct: made in house
Put plainly: [3H]Tg-1-90B saturation binding assay with IVTris fibrils. As to conditions: 250 nM fibrils. The method, then: (§1) IVTris fibrils were assembled in vitro by spontaneous nucleation in 20 mM Tris-HCl, pH 8.0, 100 mM NaCl buffer in a total volume of 1500 µL at 2 mg/mL monomer concentration. The incubation was carried out at 37 °C with continuous shaking at 1000 rpm in a Thermomixer (Eppendorf, Framingham, MA, USA) for 72 h. Amplified LBD fibrils were prepared as described in Dhavale et al. and case LBD1 amplified fibrils were used in this study. PD, disease-control and AD insoluble fraction (IF) tissue homogenate was prepared by sequential homogenization of dissected tissue gray matter in a series of detergents followed by centrifugation to obtain insoluble fraction. […]
(§2) A fixed concentration of binding substrates IVTris fibrils (250 nM), amplified LBD fibrils (50 nM), Aβ fibrils (150 nM), tau fibrils (150 nM), PD, AD or disease control homogenate (10 µg/mL) were incubated for 2 h at 37 °C with increasing concentrations of [^3H]Tg-1-90B in a reaction volume of 150 µL in a 96-well plate. […] Filters containing the bound ligand were mixed with 150 µL of Optiphase Supermix scintillation cocktail (PerkinElmer, Waltham, MA, USA) and counted following overnight incubation. […] The dissociation constant (Kd) and the maximal number of binding sites (Bmax) values were determined by fitting the data to the equation Y = Bmax × X/(X + Kd) by non-linear regression using Graphpad Prism software (version 7.0).

The target of test [2] is T2, amplified LBD fibrils (PDB 8FPT) alpha-synuclein (Homo sapiens, UniProt P37840).
T2 construct: made in house
Put plainly: [3H]Tg-1-90B saturation binding assay with amplified LBD fibrils. The note with it: 50 nM fibrils. As for the experimental part: as §1, §2

For `COc1ccc(/C=C/c2cc(-c3nccs3)on2)cc1` [Tg-1-90B], the Kd worked out at 40.1 ± 1.9 nM in test [1] (2 h 37 °C, one site saturable specific binding) and 17.5 nM in test [2] (2 h 37 °C). Moreover, the “average Bmax, IVTris fibrils” value in test [1] (per nmol Asyn) came out at 22.3 ± 0.1 pmol/nmol. Moreover, the “average Bmax, amplified LBD fibrils” value in test [2] (per nmol Asyn) worked out at 20.6 ± 2.5 pmol/nmol.

The values are drawn from publication PMC12468313, “Use of Amplified Lewy Body Dementia Fibrils and Autoradiography to Characterize Binding of Radioligand Tg-1-90B to Alpha-Synuclein Fibrils in Postmortem Brain Tissue” (Cells, 2025).
